The values that follow come from patent publication US10925890B2, “Use of dextran sulfate” (TX MEDIC AB, priority 2014, dated 2021).

Common to all, as to type: in vivo
Data set [1] concerns tMCAO rat-stroke model. The data set is described as follows: Brain immunostaining: capillaries density (SMA) and GFAP, tMCAO rat. The text has this: On day 30 after MCAO, rats were anesthetized by ketamine/xylazine were transcardiacly perfused by buffered paraformaldehyde (PFA) 4%. The brains were collected fixed in 4% buffered PFA for immunostaining and histological evaluation.
Two sections of brain samples were taken from the same areas of six animals from groups 1M and 3M. Capillaries were counted under the microscope in a total of three random fields from each section. Density was expressed as the mean number of capillaries per field of view.

Data set [2] relates to Critical Hind-Limb Ischemia Mouse Model. Description: Blood flow by non-contact laser Doppler, mouse hind-limb ischemia. To be noted: for folds increase in the mean blood flow due to dextran sulfate treatment: vs vehicle control 1M; for Mean change in blood flow day 35 vs. day 1: operated limb, vehicle 19.5. The procedure: Blood flows in legs from both sides were measured with a non-contact laser Doppler before surgery on day −1 and on days: 1, 7, 14, 21, 28 and 35 post operation. Blood flow measurements was expressed as the ratio of the flow in the ischemic limb to that in the normal limb.

Data set [3] deals with tMCAO rat-stroke model. Description: Forelimb placing test, tMCAO rat. Here is the method: Transient middle cerebral artery occlusion was performed according to the method previously described in Stroke 29, 2162-2170 (1998). The right common carotid artery (CCA) was exposed through a midline neck incision and carefully dissected free from surrounding nerves and fascia—from its bifurcation to the base of the skull. The occipital artery branches of the external carotid artery (ECA) were then isolated, and these branches were dissected and coagulated. The ECA was dissected further distally and coagulated along with the terminal lingual and maxillary artery branches, which was then divided. The internal carotid artery (ICA) was isolated and carefully separated from the adjacent vagus nerve, and the pterygopalatine artery was ligated close to its origin with a 5-0 nylon suture (SMI, Belgium). Next a 4-0 silk suture was tied loosely around the mobilized ECA stump, and a 4 cm length of 4-0 monofilament nylon suture (the tip of the suture was blunted by using a flame, and the suture was coated with polylysine, prior to insertion) was inserted through the proximal ECA into the ICA and thence into the circle of Willis, effectively occluding the MCA. […]
For each subtest, animals were scored as followed: • 0.0=immediate response • 0.5=response within 2 seconds • 1.0=response of 2-3 seconds • 1.5=response of >3 seconds • 2.0=no response

The test system of data set [4] is Critical Hind-Limb Ischemia Mouse Model. Description: Immunohistochemistry and capillaries density (CD34, SMA, FITC-dextran), mouse hind-limb ischemia. The procedure:
Mice were sacrificed at study termination on day 36. Fluorescein isothiocyanate (FITC)—dextran 500000 Da conjugate 10 mg/ml was injected i.v. in a dose of 200 μl per mouse 5 minutes before sacrifice to all animals. Quadriceps muscle was dissected into coronary part. The muscle was fixed in 2.5% fresh paraformaldehyde (pH 7.4) for 24 hours and was then embedded in the paraffin for smooth muscle actin (SMA) with mouse monoclonal antibodies (anti-SMA Ab-1, clone 1A4, 1:800, Thermo scientific) and CD34 with anti CD34 (1:200, Cedralene) immunostaining. Paraffin embedding was done according the standard embedding procedure.
Stained sections were evaluated and photographed by fluorescence microscope (E600; Nikon, Tokyo, Japan) equipped with plan fluor objectives connected to a CCD camera (DMX1200F; Nikon). […] Digital images were collected and analyzed using Image Pro+ software. Four sections of muscle samples were taken from the same areas of eight animals from groups 1M, 3M and 4M. The area of blood vessels was measured. Density was expressed as the mean number of capillaries per field of view. Total vessels represent all blood vessels in the measured area.

Data set [5] can be described thus: Adverse effects, rat hind-limb ischemia study. The conditions noted are these: 30 and 3 mg/kg s.c., 3 times a week or single dose. Here is the method: Animals in group 4M and 5M were injected s.c. once on Day 8, see Table 12.
In the present study blood flow improvement in the rat hind-limb ischemia model was examined in order to evaluate the efficacy of dextran sulfate in two different doses and treatment regimes. […] Both doses and administration regimens were efficacious. No spontaneous amputations or toe necrosis occurred in any of the treated or control animal groups. […] Collectively the data of this study confirmed the therapeutic efficacy of dextran sulfate for the treatment of occlusive peripheral arterial disease in the rat hind-limb ischemia model.

As for Dextran sulfate, the “Number of SMA capillaries with diameter less than 30 μm” value with tMCAO rat-stroke model [1] (15 mg/kg daily vs vehicle control) was “Improvement”. Further, the “Number of capillaries compared to vehicle treated control” value in the data set with tMCAO rat-stroke model [1] (15 mg/kg daily, 30 days after stroke) is recorded as “increased the number of capillaries”. Also, in the data set on tMCAO rat-stroke model [1] (GFAP area, day 30), the “Inflammatory response compared to vehicle treated control” value is given as “reduced inflammatory response”. The “Blood perfusion compared to the vehicle treated control” value in data set [2] (30 mg/kg s.c. three times a week or once a week) is recorded as “significantly restored blood perfusion”. Further, the “folds increase in the mean blood flow due to dextran sulfate treatment” value in data set [2] (group 2M, 10 mg/kg 3 times/week) was found to be 2.2 folds; in data set [2] (group 3M, 30 mg/kg 3 times/week), 3.0 folds; in data set [2] (group 4M, 30 mg/kg 1 time/week), 2.8 folds. The “Mean change in blood flow day 35 vs. day 1” value in data set [2] (group 2M, 10 mg/kg s.c. 3 times/week) was 46.7 units; in data set [2] (group 3M, 30 mg/kg s.c. 3 times/week), 59.3 units; in data set [2] (group 4M, 30 mg/kg s.c. 1 time/week), 51.1 units. For the same substance, the “Forelimb placement test compared to vehicle control” value with tMCAO rat-stroke model [3] (all treated rats, starting on day 14 up to day 28) was “statistically significant improvement”. In addition, in the data set with tMCAO rat-stroke model [3] (group 3M (15 mg/kg daily), first testing on day 7), the “Forelimb placement test, improvement in sensory motor deficits” value was “reached statistical significance”. In addition, the “Angiogenesis in ischemic (right) vs non-ischemic (left) limb” value in data set [4] (CD34 and FITC-dextran capillaries density, FIG. 4) is “only induce angiogenesis in the ischemic tissue”. For the same substance, in data set [4] (groups 3M and 4M (30 mg/kg) vs 1M, day 35), the “Number of CD34 positive capillaries compared to control group” value is reported as “larger”. Moreover, the “FITC-dextran staining of capillaries (functional capillaries)” value in data set [4] (groups 3M and 4M, ischemic limb) was “functioning and active”. Moreover, in data set [4] (treated groups vs control), the “SMA staining, capillaries formation” value was “same increase in capillaries formations”. For the same substance, in data set [5], the “Adverse effects in the treated animals” value is given as “did not cause any adverse effects”.
